Results reported in patent US20250049737A1, “Lauflumide and derivatives thereof for treating chronic fatigue syndrome and myalgic encephalomyelitis/chronic fatigue syndrome (ME/CFS)” (NLS Pharmaceutics AG, priority 2021, published 2025).
Entries after “also recorded” stand apart in the source; their conditions may differ.

Columns and labels:
[1] = system: Rat model of severe fatigue; test: Rat model of severe fatigue (sleep deprivation): recording of circadian locomotor activity; type: in vivo, Rats, Sprague-Dawley; conditions: for Period after administration during which the distance travelled was dramatically increased: 2-h period analysis; for Distance travelled during the 12-h dark phase / Total distance travelled during the full 24-h period / Difference of distance travelled between the dark phase and the light phase / Distance travelled during the 12-h light phase: days 1, 2 and 3
Protocol: In the following example, Lauflumide is also called NLS-4.
Animals are individually housed in transparent polycarbonate cages (1354G Eurostandard Type IV cage, Tecniplast, Italy, 595×380×200 mm, floor area=1820 cm^2) filled with water (23±1° C.) to a height of 1.5 cm. A platform (5 cm height, 6.5 cm diameter) was located at the center of the cage. Animals can stay on the platform in order to stay dry but falls from it when it falls in deep sleep. […] During this period, animals were placed in a modified light/dark cycle with variable durations of the light and dark periods which change every day. This procedure is intended to disrupt the circadian rhythm.
The Sham group was housed in normal condition for the same period under a 12/12 h light/dark cycle.
After the end of the fatigue period, animals were placed in transparent polycarbonate cages (Type E, Iffa Credo, France, 450×300×200 mm, floor area=1032 cm^2), under a 12 h/12 h cycle. Cages were covered with a stainless steel grid in which food and a bottle are placed. A stainless steel removable divider separated food and water. The cages were placed in infrared photobeam detection systems (Acti-track, LSI Leticca, Panlab) allowing to record continuously the distance travelled in the cage. Locomotor activity was recorded continuously for 3 days. The test started at the beginning of the dark phase of the light/dark cycle.
Seventy-six animals were subjected to the fatigue procedure and to the tests as described above. Twelve animals (Sham group) were housed in standard condition.
After the end of the Fatigue procedure, animals were divided into 10 groups which received before tests (total: 3 administrations) a per-os (p.o., oral gavage) administration of: • Sham (no fatigue) group (N=12): Vehicle. • Control group (N=11): Vehicle. • Modafinil 32 (N=10): modafinil (32 mg/kg). • Modafinil 64 (N=10): modafinil (64 mg/kg). • Modafinil 128 (N=5): modafinil (128 mg/kg). • NLS-4 16 (N=5): NLS-4 (16 mg/kg). • NLS-4 32 (N=10): NLS-4 (32 mg/kg). • NLS-4 64 (N=10): NLS-4 (64 mg/kg). • NLS-4 128 (N=10): NLS-4 (128 mg/kg). • NLS-4 256 (N=5): NLS-4 (256 mg/kg).
Read-out: distance travelled during 24-h periods, 12-h dark and light periods and during 2-h periods.
Data are expressed as mean and standard error of mean (SEM).
Statistical analyses: Student's t test, repeated measure ANOVA.
A difference is considered statistically significant at p≤0.05.

impulsivity = test: Impulsivity; type: in vivo; conditions: three doses tested; compared with modafinil
[2] = 16 mg/kg p.o., vs. Control (fatigue) group
[3] = 16 mg/kg p.o., vs. Modafinil 32 group (32 mg/kg)
[4] = 16 mg/kg p.o., vs. Modafinil 64 group (64 mg/kg)
[5] = 16 mg/kg p.o., vs. Sham (no fatigue) group, listed as NLS-4
[6] = 32 mg/kg p.o., vs. Control (fatigue) group
[7] = 32 mg/kg p.o., vs. Sham (no fatigue) group
[8] = 64 mg/kg p.o., vs. Control (fatigue) group
[9] = 64 mg/kg p.o., vs. Sham (no fatigue) group
[10] = 128 mg/kg p.o., vs. Control (fatigue) group
[11] = 128 mg/kg p.o., vs. Sham (no fatigue) group
[12] = 256 mg/kg p.o., vs. Control (fatigue) group
[13] = 256 mg/kg p.o., vs. Sham (no fatigue) group

Structure (SMILES): NC(=O)C[S@@+]([O-])C(c1ccc(F)cc1)c1ccc(F)cc1 [Lauflumide, 2-[(R)-((bis(4-fluorophenyl)methane)sulfinyl)]acetamide]
- Dose reducing the impairment of circadian rhythm, relative to modafinil ([1]; 16 mg/kg NLS-4 vs. 64 mg/kg modafinil): four times lower
- Increase in locomotor activity compared with modafinil (32 mg/kg) ([1]; 16 mg/kg p.o.): significantly higher
- Increase in locomotor activity compared with modafinil (64 mg/kg) ([1]; 16 mg/kg p.o.): of the same magnitude
- Motor activity during the first 2-h periods following the dosing ([1]; 16 mg/kg p.o.): increased
- Period after administration during which the distance travelled was dramatically increased ([1]; 16 mg/kg p.o.): 2 h
- Distance travelled during the 12-h dark phase [1, 2]: higher
- Total distance travelled during the full 24-h period [1, 2]: higher
- Difference of distance travelled between the dark phase and the light phase ([1]; 16 mg/kg p.o., vs. Control (fatigue) group, listed as NLS-4): higher or tended to be higher; also recorded: increased
- Difference of distance travelled between the dark phase and the light phase [1, 3]: higher than the Modafinil 32 group on days 2 and 3 only
- Distance travelled during the 12-h light phase [1, 3]: higher than the Modafinil 32 group during the dark period on day 3 only and during the light period on day 1 only
- Total distance travelled during the full 24-h period [1, 3]: higher than the Modafinil 32 group on day 3 only
- Difference of distance travelled between the dark phase and the light phase [1, 4]: not significantly different
- Distance travelled during the 12-h dark phase [1, 4]: not significantly different
- Distance travelled during the 12-h light phase [1, 4]: not significantly different
- Total distance travelled during the full 24-h period [1, 4]: not significantly different
- Total distance travelled during the full 24-h period ([1]; 16 mg/kg p.o., vs. Sham (no fatigue) group): not significantly different
- Difference of distance travelled between the dark phase and the light phase [1, 5]: increased the distance travelled in comparison with the Sham group during day 3 only; also recorded: higher than the Sham group on day 3 only
- Distance travelled during the 12-h dark phase [1, 5]: increased the distance travelled in comparison with the Sham group during the light phase on day 1 and during the dark phase on day 3; also recorded: higher than the Sham group during the dark period on day 3 only
- Distance travelled during the 12-h light phase [1, 5]: increased the distance travelled in comparison with the Sham group during the light phase on day 1 and during the dark phase on day 3; also recorded: higher than the Control group during the light periods on day 1 only
- Period after administration during which the distance travelled was dramatically increased ([1]; 32 mg/kg p.o.): 8 h
- Distance travelled during the 12-h dark phase [1, 6]: higher
- Distance travelled during the 12-h light phase [1, 6]: not significantly different
- Total distance travelled during the full 24-h period [1, 6]: higher
- Difference of distance travelled between the dark phase and the light phase ([1]; 32 mg/kg p.o., vs. Control (fatigue) group, listed as NLS-4): higher or tended to be higher; also recorded: increased
- Difference of distance travelled between the dark phase and the light phase [1, 7]: increased the distance travelled in comparison with the Sham group during day 3 only
- Distance travelled during the 12-h dark phase [1, 7]: increased the distance travelled in comparison with the Sham group during the light phase on days 1, 2 and 3, and during the dark phase on days 2 and 3
- Distance travelled during the 12-h light phase [1, 7]: increased the distance travelled in comparison with the Sham group during the light phase on days 1, 2 and 3, and during the dark phase on days 2 and 3
- Total distance travelled during the full 24-h period [1, 7]: increased the distance travelled in comparison with the Sham group during days 1, 2 and 3
- Distance travelled during the 12-h dark phase [1, 8]: higher
- Distance travelled during the 12-h light phase [1, 8]: higher for the NLS-4 64 group than for the Control group during the dark phase on days 1, 2 and 3 and during the light phase on day 3 only
- Total distance travelled during the full 24-h period [1, 8]: higher
- Difference of distance travelled between the dark phase and the light phase ([1]; 64 mg/kg p.o., vs. Control (fatigue) group, listed as NLS-4): higher or tended to be higher; also recorded: increased
- Distance travelled during the 12-h dark phase [1, 9]: increased the distance travelled in comparison with the Sham group during both the dark and light phase on days 1, 2 and 3
- Distance travelled during the 12-h light phase [1, 9]: increased the distance travelled in comparison with the Sham group during both the dark and light phase on days 1, 2 and 3
- Total distance travelled during the full 24-h period [1, 9]: increased the distance travelled in comparison with the Sham group during days 1, 2 and 3
- Distance travelled during the 12-h dark phase [1, 10]: higher
- Distance travelled during the 12-h light phase [1, 10]: higher
- Total distance travelled during the full 24-h period [1, 10]: higher
- Difference of distance travelled between the dark phase and the light phase ([1]; 128 mg/kg p.o., vs. Control (fatigue) group, listed as NLS-4): higher or tended to be higher; also recorded: increased
- Distance travelled during the 12-h dark phase [1, 11]: increased the distance travelled in comparison with the Sham group during both the dark and light phase on days 1, 2 and 3
- Distance travelled during the 12-h light phase [1, 11]: increased the distance travelled in comparison with the Sham group during both the dark and light phase on days 1, 2 and 3
- Total distance travelled during the full 24-h period [1, 11]: increased the distance travelled in comparison with the Sham group during days 1, 2 and 3
- Distance travelled during the 12-h dark phase [1, 12]: higher
- Distance travelled during the 12-h light phase [1, 12]: higher
- Total distance travelled during the full 24-h period [1, 12]: higher
- Difference of distance travelled between the dark phase and the light phase ([1]; 256 mg/kg p.o., vs. Control (fatigue) group, listed as NLS-4): higher or tended to be higher; also recorded: increased
- Difference of distance travelled between the dark phase and the light phase [1, 13]: increased the distance travelled in comparison with the Sham group during day 3 only
- Distance travelled during the 12-h dark phase [1, 13]: increased the distance travelled in comparison with the Sham group during both the dark and light phase on days 1, 2 and 3
- Distance travelled during the 12-h light phase [1, 13]: increased the distance travelled in comparison with the Sham group during both the dark and light phase on days 1, 2 and 3
- Total distance travelled during the full 24-h period [1, 13]: increased the distance travelled in comparison with the Sham group during days 1, 2 and 3
- Distance travelled during the dark phase (2-h period analysis), dose relation ([1]; 16-256 mg/kg p.o.): dose-dependently increased
- Period after administration during which the distance travelled was dramatically increased ([1]; 64-256 mg/kg p.o.): 10 h
- Impulsivity (impulsivity): improved impulsivity at the three doses tested with a better significant response than modafinil
